Counter-ions that a name gives are not always drawn. Like-named read-outs stand apart in the source and are kept apart here.
How the values were obtained:
Format in all cases: biochemical
[1] = target: CDK4/CycD3 (Homo sapiens, UniProt P11802); assay: Determination of CDK activity (Caliper mobility shift, FAM-P8 peptide): CDK4; settings: read-out: CDK4 enzymatic inhibitory activity (IC50)
Experimental: (§1) In vitro, CDK (CDK4, CDK6, CDK1, CDK2, CDK7, and CDK9) kinase activity was tested by the following method.
(§2) CDK and raw materials used here: CDK4/CycD3 (Carna, Cat. No 04-105, Lot. No 10CBS-0429 C, GST-CDK4(1-303end)/GST-CycD3(1-292end)); CDK6/cycD3 (Carna, Cat. No 04-107, Lot. No 09CBS-0622K, GST-CDK6(1-326(end))); CDK1/CyclinB (Millipore, Cat. 14-450k, Lot. No 25729U, His-CDK1+GST-cyclinB); CDK2/CycA2 (Carna, Cat. No 04-103, Lot. No 06CBS-3024, GST-CDK2 (1-298(end))); CDK7/CyclinH/MAT1 (Millipore, Cat. No 14-476M, Lot. No WAB0365-A, His-CDK7+GST-MAT1+cyclinH); CDK9/cyclinTl (Millipore, Cat. No 14-685K, Lot. No. 2476163-A, His-CDK9+cyclinTl); Peptide FAM-P8 (GL Biochem, Cat. No. 112396, Lot. No. P100804-XZ112396); ATP (Sigma, Cat. No. A7699-1G, CAS No. 987-65-5); DMSO (Sigma, Cat. No. D2650, Lot. No. 474382); EDTA (Sigma, Cat. No. E5134, CAS No. 60-00-4); 96-well plate (Corning, Cat. No. 3365, Lot. No. 22008026); 384-well plate (Corning, Cat. No. 3573, Lot. No. 12608008); Staurosporine (Sigma, Cat. No. S4400-1MG, Lot. No. 046K4080).
(§3) 1. Prepared 1× Kinase Buffer and Stop Buffer for the Test
2) 1× Kinase Base Buffer (CDK4).
(§4) 1) Diluted the compound to 50 times of the maximum concentration with 100% DMSO. For example, if the desired maximum inhibitory concentration is 10 μM, then a DMSO solution of 500 μM concentration is required.
(§5) 2) Transferred the compound to a 96-well plate and serially diluted the compound from a 100% DMSO solution at a ratio of 30 μm to 60 μm for a total of 10 concentrations gradients. 3) Transferred 100 μm of 100% DMSO to two empty wells as a no compound control and a no enzyme control.
(§6) 4) Prepared intermediate plate and transferred the compound of 10 μm concentration from the original plate to the intermediate plate, and then 90 μm of 1× kinase buffer was added and mixed by shaking for 10 min.
(§7) 4) Preparing intermediate plate and transferred the compound of […] concentration from the original plate to the intermediate plate, and then 90 μm of 1× kinase buffer was added and mixed by shaking for 10 min.
(§8) 1) Transferred 5 μm of each compound from the 96-well intermediate plate to a 384-well plate. For example, A1 of the 96-well plate was transferred to A1 and A2 of the 384-well plate. A2 of the 96-well plate was transferred to A3 and A4 of the 384-well plate, and so on.
(§9) 1) Prepared a 2.5× enzyme solution: added kinase into 1× kinase base buffer.
(§10) 2) Prepared a 2.5× peptide solution: added FAM-labeled peptide and ATP into the 1× kinase base buffer.
(§11) 3) Transferred the 2.5× enzyme solution to the assay plate: Assay plate already contained 5 μm of 10% DMSO and transferred 10 μm of 2.5× enzyme solution to each well.
(§12) 4) Incubated at room temperature for 10 min.
(§13) 5) Transferred the 2.5× peptide solution to the assay plate: added 10 μm of 2.5× peptide solution to each well of the 384-well assay plate.
(§14) 6) Kinase reaction and termination: incubated at 28° C. for a specified period and added 25 μm of stop buffer to stop the reaction.
(§15) 5. Caliper Reading: Collect Data on Caliper.
(§16) 1) Copied conversion data from Caliper program and Converted conversion values to inhibition values: Inhibition rate (%)=(1−OD value of the compound-OD value of the control well)/(OD value of the control empty-OD value of the control well)*100%.
(§17) 2) Fitted the data in XLFit excel add-in version 4.3.1 to give the corresponding IC50 values.

[2] = target: CDK6/cycD3 (Homo sapiens, UniProt Q00534); assay: Determination of CDK activity (Caliper mobility shift, FAM-P8 peptide): CDK6; settings: read-out: CDK6 enzymatic inhibitory activity (IC50)
Sequence of CDK6/cycD3 (Q00534 whole entry): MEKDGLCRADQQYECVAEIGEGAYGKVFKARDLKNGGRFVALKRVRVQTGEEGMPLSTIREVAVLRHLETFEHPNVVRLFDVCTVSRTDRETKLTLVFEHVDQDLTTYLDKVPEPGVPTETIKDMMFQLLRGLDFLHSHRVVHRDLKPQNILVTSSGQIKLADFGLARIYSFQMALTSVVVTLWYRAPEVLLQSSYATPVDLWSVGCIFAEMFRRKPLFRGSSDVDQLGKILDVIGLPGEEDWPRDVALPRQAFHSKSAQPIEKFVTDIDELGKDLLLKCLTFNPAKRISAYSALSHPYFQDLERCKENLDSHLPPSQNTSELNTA
Sequence of CDK6/cycD3 (P30281 whole entry partner): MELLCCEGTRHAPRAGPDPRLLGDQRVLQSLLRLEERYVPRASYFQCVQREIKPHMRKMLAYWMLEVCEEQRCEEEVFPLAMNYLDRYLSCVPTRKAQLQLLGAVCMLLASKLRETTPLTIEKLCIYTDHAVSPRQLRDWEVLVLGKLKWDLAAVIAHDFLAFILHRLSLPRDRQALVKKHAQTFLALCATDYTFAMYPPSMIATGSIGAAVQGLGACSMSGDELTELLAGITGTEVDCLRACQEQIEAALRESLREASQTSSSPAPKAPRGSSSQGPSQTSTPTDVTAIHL
Experimental: as §1, §2, §3
(§18) 1) 1× Kinase Base Buffer (CDK1, 2, and 6).
as §4, §5, §6, §7, §8, §9, §10, §11, §12, §13, §14, §15, §16, §17

[3] = target: CDK1/CyclinB (Homo sapiens, UniProt P06493); assay: Determination of CDK activity (Caliper mobility shift, FAM-P8 peptide): CDK1; settings: read-out: CDK1 enzymatic inhibitory activity (IC50)
Sequence of CDK1/CyclinB (P06493 whole entry): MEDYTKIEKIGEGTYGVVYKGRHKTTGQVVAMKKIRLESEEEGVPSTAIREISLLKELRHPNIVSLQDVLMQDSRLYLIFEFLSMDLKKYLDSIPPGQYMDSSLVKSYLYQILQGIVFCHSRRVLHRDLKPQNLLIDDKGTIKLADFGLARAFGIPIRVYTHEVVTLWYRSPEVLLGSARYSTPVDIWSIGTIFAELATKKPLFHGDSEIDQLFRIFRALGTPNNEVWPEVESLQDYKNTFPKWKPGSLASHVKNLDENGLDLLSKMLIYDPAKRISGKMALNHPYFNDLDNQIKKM
Sequence of CDK1/CyclinB (P14635 whole entry partner): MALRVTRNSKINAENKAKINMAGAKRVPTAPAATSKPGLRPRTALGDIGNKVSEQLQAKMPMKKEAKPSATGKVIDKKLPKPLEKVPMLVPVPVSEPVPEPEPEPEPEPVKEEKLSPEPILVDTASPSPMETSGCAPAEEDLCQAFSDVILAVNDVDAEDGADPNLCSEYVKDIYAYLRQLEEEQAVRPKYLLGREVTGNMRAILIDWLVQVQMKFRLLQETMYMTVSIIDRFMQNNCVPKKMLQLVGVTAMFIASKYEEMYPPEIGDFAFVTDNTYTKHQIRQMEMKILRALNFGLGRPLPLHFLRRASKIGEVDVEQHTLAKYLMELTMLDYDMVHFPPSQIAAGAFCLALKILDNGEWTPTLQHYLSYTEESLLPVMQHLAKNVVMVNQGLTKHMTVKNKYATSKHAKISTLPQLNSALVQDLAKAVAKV
Experimental: as §1, §3, §18, §4, §5
(§19) 1) Transferred 5 μm of each compound from the 96-well intermediate plate to a 384-well plate. […] A2 of the 96-well plate was transferred to A3 and A4 of the 384-well plate, and so on.
as §9, §10, §11, §12, §13, §14, §15, §16, §17

[4] = target: CDK2/CycA2 (Homo sapiens, UniProt P24941); assay: Determination of CDK activity (Caliper mobility shift, FAM-P8 peptide): CDK2; settings: read-out: CDK2 enzymatic inhibitory activity (IC50)
Experimental: as §1, §3, §18, §4, §5, §19, §9, §10, §11, §12, §13, §14, §15, §16, §17

[5] = target: CDK7/CyclinH/MAT1 (Homo sapiens, UniProt P50613); assay: Determination of CDK activity (Caliper mobility shift, FAM-P8 peptide): CDK7; settings: read-out: CDK7 enzymatic inhibitory activity (IC50)
Sequence of CDK7/CyclinH/MAT1 (P50613 whole entry): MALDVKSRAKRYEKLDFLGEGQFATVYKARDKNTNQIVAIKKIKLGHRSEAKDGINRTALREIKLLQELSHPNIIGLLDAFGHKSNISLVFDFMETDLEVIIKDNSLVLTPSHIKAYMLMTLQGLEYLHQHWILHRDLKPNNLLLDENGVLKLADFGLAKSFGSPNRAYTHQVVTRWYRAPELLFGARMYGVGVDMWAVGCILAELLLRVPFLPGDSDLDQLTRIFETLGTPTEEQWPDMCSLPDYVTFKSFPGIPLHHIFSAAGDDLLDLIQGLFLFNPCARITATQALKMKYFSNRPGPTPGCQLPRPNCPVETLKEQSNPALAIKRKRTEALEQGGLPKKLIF
Sequence of CDK7/CyclinH/MAT1 (P51946 whole entry partner): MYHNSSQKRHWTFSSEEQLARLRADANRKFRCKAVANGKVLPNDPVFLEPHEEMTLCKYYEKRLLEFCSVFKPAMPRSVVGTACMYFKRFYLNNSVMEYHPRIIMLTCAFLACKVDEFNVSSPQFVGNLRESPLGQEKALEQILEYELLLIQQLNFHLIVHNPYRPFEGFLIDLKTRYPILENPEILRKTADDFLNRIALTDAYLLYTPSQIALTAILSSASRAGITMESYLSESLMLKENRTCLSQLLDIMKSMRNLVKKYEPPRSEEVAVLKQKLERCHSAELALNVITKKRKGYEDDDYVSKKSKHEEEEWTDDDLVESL
Sequence of CDK7/CyclinH/MAT1 (P51948 whole entry partner): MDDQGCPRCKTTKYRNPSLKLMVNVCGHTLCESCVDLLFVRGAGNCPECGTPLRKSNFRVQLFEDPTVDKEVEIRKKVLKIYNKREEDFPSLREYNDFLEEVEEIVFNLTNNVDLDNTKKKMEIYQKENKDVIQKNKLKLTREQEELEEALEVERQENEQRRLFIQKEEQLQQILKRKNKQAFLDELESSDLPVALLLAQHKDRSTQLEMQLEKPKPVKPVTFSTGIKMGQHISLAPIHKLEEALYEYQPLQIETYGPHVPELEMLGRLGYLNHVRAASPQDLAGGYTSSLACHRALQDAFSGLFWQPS
Experimental: as §1, §2, §3
(§20) 3) 1× Kinase Base Buffer (CDK7 and 9).
as §4, §5, §6, §7, §8, §9, §10, §11, §12, §13, §14, §15, §16, §17

[6] = target: CDK9/cyclinTl (Homo sapiens, UniProt P50750); assay: Determination of CDK activity (Caliper mobility shift, FAM-P8 peptide): CDK9; settings: read-out: CDK9 enzymatic inhibitory activity (IC50)
Sequence of CDK9/cyclinTl (P50750 whole entry): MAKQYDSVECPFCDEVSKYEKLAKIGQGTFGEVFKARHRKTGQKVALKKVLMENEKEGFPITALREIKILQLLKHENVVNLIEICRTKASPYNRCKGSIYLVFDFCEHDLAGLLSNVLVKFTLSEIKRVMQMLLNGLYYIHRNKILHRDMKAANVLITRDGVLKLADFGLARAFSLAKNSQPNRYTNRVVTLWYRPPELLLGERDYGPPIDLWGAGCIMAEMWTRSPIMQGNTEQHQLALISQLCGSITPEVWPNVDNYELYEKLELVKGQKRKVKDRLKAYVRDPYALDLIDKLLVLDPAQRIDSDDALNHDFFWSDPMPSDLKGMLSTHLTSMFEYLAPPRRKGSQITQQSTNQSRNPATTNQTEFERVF
Sequence of CDK9/cyclinTl (O60563 whole entry partner): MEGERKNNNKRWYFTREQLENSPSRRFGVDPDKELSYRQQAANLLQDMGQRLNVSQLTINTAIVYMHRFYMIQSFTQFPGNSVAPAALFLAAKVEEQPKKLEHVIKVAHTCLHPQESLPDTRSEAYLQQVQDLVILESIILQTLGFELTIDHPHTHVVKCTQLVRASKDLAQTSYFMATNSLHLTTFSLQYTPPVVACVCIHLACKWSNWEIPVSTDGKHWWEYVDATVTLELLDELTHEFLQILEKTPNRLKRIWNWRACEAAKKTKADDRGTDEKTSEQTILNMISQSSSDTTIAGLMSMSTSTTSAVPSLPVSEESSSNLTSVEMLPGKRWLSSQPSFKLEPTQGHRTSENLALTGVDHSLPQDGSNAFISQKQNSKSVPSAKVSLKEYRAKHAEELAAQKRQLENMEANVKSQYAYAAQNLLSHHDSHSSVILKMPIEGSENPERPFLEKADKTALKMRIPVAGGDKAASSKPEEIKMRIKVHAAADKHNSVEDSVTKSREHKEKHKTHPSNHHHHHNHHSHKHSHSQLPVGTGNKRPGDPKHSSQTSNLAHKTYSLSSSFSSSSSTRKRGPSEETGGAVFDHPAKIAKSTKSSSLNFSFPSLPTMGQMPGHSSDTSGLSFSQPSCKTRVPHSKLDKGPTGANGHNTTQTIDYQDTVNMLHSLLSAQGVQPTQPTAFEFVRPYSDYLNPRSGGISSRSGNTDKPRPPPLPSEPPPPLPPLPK
Experimental: as §1, §3, §20, §4, §5, §19, §9, §10, §11, §12, §13, §14, §15, §16, §17

Sequence of CDK4/CycD3 (P11802 whole entry): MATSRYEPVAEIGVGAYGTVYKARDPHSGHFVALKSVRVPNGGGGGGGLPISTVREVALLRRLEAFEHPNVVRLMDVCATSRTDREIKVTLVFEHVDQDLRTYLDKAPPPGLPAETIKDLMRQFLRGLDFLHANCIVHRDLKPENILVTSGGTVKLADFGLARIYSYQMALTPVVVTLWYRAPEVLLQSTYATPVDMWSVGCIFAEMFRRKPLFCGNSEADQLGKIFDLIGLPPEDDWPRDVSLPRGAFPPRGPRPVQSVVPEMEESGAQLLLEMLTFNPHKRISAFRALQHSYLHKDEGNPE
Sequence of CDK4/CycD3 (P30281 whole entry partner): as the sequence (P30281 whole entry partner) above

Row | Structure (SMILES) | IC50 ([1]; CDK4/CycD3) | IC50 ([2]; CDK6/cycD3) | IC50 ([3]; CDK1/CyclinB) | IC50 ([4]; CDK2/CycA2) | IC50 ([5]; CDK7/CyclinH/MAT1) | IC50 ([6]; CDK9/cyclinTl) | IC50 [1] | IC50 [2] | IC50 [3] | IC50 [4] | IC50 [5] | IC50 [6]
1 | CCC(c1ccc(Nc2ncc(F)c(-c3cc(F)c4nc(C)n(C(C)C)c4c3)n2)nc1)N1CCN(CC)CC1 (single isomer, unassigned) [Example 2, (R or S)—N-(5-(1-(4-ethylpiperazin-1-yl)propyl)pyridin-2-yl)-5-fluoro-4-(4-fluoro-1-isopropyl-2-methyl-1H-benzo[d]imidazol-6-yl) pyrimidin-2-amine] | < 100 nM | 100 to 500 nM | 10000 to 100000 nM | 1000 to 10000 nM | 1000 to 10000 nM | 1000 to 10000 nM | – | – | – | – | – | –
2 | Cc1nc2c(F)cc(-c3nc(Nc4ccc(C(C)C5CCNCC5)cn4)ncc3F)cc2n1C(C)C (single isomer, unassigned) [Example 20, (R or S)-5-fluoro-4-(4-fluoro-1-isopropyl-2-methyl-1H-benzo[d]imidazol-6-yl)-N-(5-(1-(piperidin-4-yl)ethyl)pyridin-2-yl) pyrimidin-2-amine] | < 100 nM | 100 to 500 nM | 500 to 1000 nM | 100 to 500 nM | 1000 to 10000 nM | 500 to 1000 nM | – | – | – | – | – | –
3 | CC[C@@H](c1ccc(Nc2ncc(F)c(-c3cc(F)c4nc(C)n(C(C)C)c4c3)n2)nc1)C1CCN(CC)CC1 [Example 25] | 100 to 500 nM | 100 to 500 nM | 500 to 1000 nM | 100 to 500 nM | 1000 to 10000 nM | 500 to 1000 nM | – | – | – | – | – | –
4 | Cc1nc2c(F)cc(-c3nc(Nc4ccc(C=C5CCN(C6CC6)CC5)cn4)ncc3F)cc2n1C(C)C [Example 66] | < 100 nM | < 100 nM | 100 to 500 nM | < 100 nM | 1000 to 10000 nM | 100 to 500 nM | – | – | – | – | – | –
5 | Cc1nc2c(F)cc(-c3nc(Nc4ccc([C@H](C)C5CCN(C)CC5)cn4)ncc3F)cc2n1C(C)C (single isomer, unassigned) [Example 21] | < 100 nM | < 100 nM | 100 to 500 nM | < 100 nM | 1000 to 10000 nM | 100 to 500 nM | – | – | – | – | – | –
6 | CCC(c1ccc(Nc2ncc(F)c(-c3cc(F)c4nc(C)n(C(C)C)c4c3)n2)nc1)N1CCN(CC)CC1 (racemic) [Example 1, N-(5-(1-(4-ethylpiperazin-1-yl)propyl)pyridin-2-yl)-5-fluoro-4-(4-fluoro-1-isopropyl-2-methyl-1H-benzo[d]imidazol-6-yl)pyrimidin-2-amine] | < 100 nM | 1000 to 10000 nM | 10000 to 100000 nM | 1000 to 10000 nM | 1000 to 10000 nM | 1000 to 10000 nM | – | – | – | – | – | –
7 | CCN1CCC(C(O)c2ccc(Nc3ncc(F)c(-c4cc(F)c5nc(C)n(C(C)C)c5c4)n3)nc2)CC1 (racemic) [Example 39, (1-Ethylpiperidin-4-yl)(6-((5-fluoro-4-(4-fluoro-1-isopropyl-2-methyl-1H-benzo[d]imidazol-6-yl)pyrimidin-2-yl)amino)pyridin-3-yl)methanol] | < 100 nM | < 100 nM | < 100 nM | < 100 nM | 100 to 500 nM | < 100 nM | – | – | – | – | – | –
8 | Cc1nc2c(F)cc(-c3nc(Nc4ccc(C(O)C5CCNCC5)cn4)ncc3F)cc2n1C(C)C (stereo not drawn) [Example 42, (6-((5-Fluoro-4-(4-fluoro-1-isopropyl-2-methyl-1H-benzo[d]imidazol-6-yl)pyrimidin-2-yl)amino)pyridin-3-yl)(piperidin-4-yl) methanol hydrochloride] | – | – | – | – | – | – | 100 to 500 nM | 100 to 500 nM | 100 to 500 nM | < 100 nM | 100 to 500 nM | 100 to 500 nM
9 | Cc1nc2c(F)cc(-c3nc(Nc4ccc(C(C)C5CCNCC5)cn4)ncc3F)cc2n1C(C)C (single isomer, unassigned) [Example 19, (R or S)-5-fluoro-4-(4-fluoro-1-isopropyl-2-methyl-1H-benzo[d]imidazol-6-yl)-N-(5-(1-(piperidin-4-yl)ethyl)pyridin-2-yl) pyrimidin-2-amine] | 100 to 500 nM | < 100 nM | 100 to 500 nM | 100 to 500 nM | 1000 to 10000 nM | 100 to 500 nM | – | – | – | – | – | –
10 | Cc1nc2c(F)cc(-c3nc(Nc4ccc([C@H](O)C5CCNCC5)cn4)ncc3F)cc2n1C(C)C [Example 43] | < 100 nM | 100 to 500 nM | 100 to 500 nM | 100 to 500 nM | 500 to 1000 nM | 100 to 500 nM | – | – | – | – | – | –
11 | Cc1nc2c(F)cc(-c3nc(Nc4ccc(C=C5CCNCC5)cn4)ncc3F)cc2n1C(C)C [Example 59] | < 100 nM | 500 to 1000 nM | 500 to 1000 nM | 100 to 500 nM | 1000 to 10000 nM | 100 to 500 nM | – | – | – | – | – | –
12 | Cc1nc2c(F)cc(-c3nc(Nc4ccc(C=C5CCN(CC(F)F)CC5)cn4)ncc3F)cc2n1C(C)C [Example 69] | < 100 nM | < 100 nM | 100 to 500 nM | < 100 nM | 1000 to 10000 nM | 100 to 500 nM | – | – | – | – | – | –
13 | CCC(c1ccc(Nc2ncc(F)c(-c3cc(F)c4nc(C)n(C(C)C)c4c3)n2)nc1)N1CCN(CC)CC1 (single isomer, unassigned) [Example 3, (R or S)—N-(5-(1-(4-ethylpiperazin-1-yl)propyl)pyridin-2-yl)-5-fluoro-4-(4-fluoro-1-isopropyl-2-methyl-1H-benzo[d]imidazol-6-yl) pyrimidin-2-amine] | < 100 nM | 100 to 500 nM | 10000 to 100000 nM | 10000 to 100000 nM | 1000 to 10000 nM | 10000 to 100000 nM | – | – | – | – | – | –
